Series [1] relates to Plasmodium falciparum. Kind of series: Antimalarial activity against chloroquine-resistant Plasmodium falciparum W2 infected in human type A-positive red blood cells assessed as growth inhibition after 72 hrs by spectrophotometrically. Format: functional, organism-based. As to conditions: W2, 72 h.
Series [2] can be described thus: Resistance index, ratio of IC50 for chloroquine-resistant Plasmodium falciparum W2 to IC50 for chloroquine-sensitive Plasmodium falciparum D10. Format: functional.
The test system of series [3] is Plasmodium falciparum. The series is described as follows: Antimalarial activity against chloroquine-sensitive Plasmodium falciparum D10 infected in human type A-positive red blood cells assessed as growth inhibition after 72 hrs by spectrophotometrically. Format: functional. As to conditions: D10, 72 h.
Series [4] can be described thus: Selectivity index, ratio of CC50 for HMEC1 to IC50 for chloroquine-sensitive Plasmodium falciparum 3D7. Format: functional.
A short description of series [5]: Resistance index, ratio of IC50 for chloroquine-resistant Plasmodium falciparum W2 to IC50 for chloroquine-sensitive Plasmodium falciparum 3D7. Format: functional.
A short description of series [6]: Cytotoxicity against HMEC1 assessed as cell growth inhibition after 72 hrs by MTT assay. Also noted: species or system HMEC-1. As to conditions: human, HMEC1 cells.
Series [7] has as its system Plasmodium falciparum. Kind of series: Antimalarial activity against chloroquine-sensitive Plasmodium falciparum 3D7 infected in human type A-positive red blood cells assessed as growth inhibition after 72 hrs by spectrophotometrically. Format: functional, organism-based. As to conditions: 3D7, 72 h.
Series [8] can be described thus: Selectivity index, ratio of CC50 for HMEC1 to IC50 for chloroquine-resistant Plasmodium falciparum W2. Format: functional.
A short description of series [9]: Selectivity index, ratio of CC50 for HMEC1 to IC50 for chloroquine-sensitive Plasmodium falciparum D10. Format: functional.
For series [10], the system named is Plasmodium falciparum. Kind of series: Antimalarial activity against Plasmodium falciparum K1. Format: functional, organism-based.
The subject of series [11] is Plasmodium falciparum. The series is described as follows: Antimalarial activity against Plasmodium falciparum Dd2. Format: functional.
The subject of series [12] is Mycobacterium tuberculosis. The series is described as follows: Antimycobacterial activity against Mycobacterium tuberculosis. Format: functional.
In series [13] the target is Heme. Kind of series: Binding affinity to heme assessed as inhibition of beta-hematin formation measured as compound IC50 to haemin molar ratio by BHIA assay.

Converted amounts (≈) assume the structure as drawn.

As a reminder, the CC50 is the concentration that lowers cell viability or growth by half. `CN1CCN(CCNc2nc3ccc(Cl)cc3c3c2C(=O)c2ccccc2-3)CC1`: the IC50 in [1] stood at 0.568 µM; in series [3], 0.703 µM; in [7], 1.03 µM. The Ratio IC50 worked out at 0.8 in [2] and 0.5 in [5]. Besides, the Ratio CC50/IC50 in series [4] was 1.9; in [8], 3.4; in [9] it was 2.8. The CC50 at 72 h in series [6] worked out at 1.94 µM.

With `Clc1ccc(/C(=C\[C@@H]2CCCN3CCCC[C@H]23)c2ccccc2)cc1Cl`, the IC50 in series [10] is 0.4 µM.

Regarding `CCC(=O)O/N=C1\c2ccccc2-c2c1c(N1CCN(c3ccccn3)CC1)nc1ccc(Cl)cc21`, the IC50 amounted to 4.16 µM in [1] and 4.05 µM in [3]. For the same compound, in series [2], the Ratio IC50 worked out at 1. The half-maximal cytotoxic concentration (CC50) at 72 h in series [6] is over 35 µM. The Ratio CC50/IC50 in series [8] was over 8.4; in series [9] it was over 8.7.

In the case of `O=C(c1ccc2[nH]ccc2c1)N1CCN(C2c3ccccc3-c3ccccc32)CC1`, the IC50 in [11] is 21.6 µM; in series [7], 16.9 µM.

Take `CCCCN(CCCC)CC(O)c1cc(Cl)cc2c1-c1ccc(Cl)cc1/C2=C/c1ccc(Cl)cc1` (centres undefined) [LUMEFANTRINE]: the IC50 in series [1], in [3] and in [7] was 0.012 µM in each case.

For orientation: MIC means the lowest concentration found to suppress growth. Low readings indicate inhibition by little substance, high ones a need for much substance. `C(=C1c2ccccc2-c2ccccc21)[C@@H]1CCCN2CCCC[C@H]12` returned an MIC in [12] of 0.49 µM (≈ 0.155 µg/mL).

Turning to `CCN(CC)CCCC(C)Nc1ccnc2cc(Cl)ccc12` (centres undefined) [CHLOROQUINE], the CC50 at 72 h in [6] was over 38 µM.

Take `O=C1c2ccccc2-c2c1c(N1CCN(c3ccccn3)CC1)nc1ccc(Cl)cc21`: the results for the IC50 in [1] and in series [3] were 6.94 µM and 6.08 µM, respectively. In addition, the Ratio IC50 in series [2] was determined as 1.1.

With `CN1CCN(CCNc2nc3ccc(Cl)cc3c3c2/C(=N/O)c2ccccc2-3)CC1`, the IC50 was determined as 0.699 µM in [1], 0.667 µM in series [3] and 0.818 µM in [7]. Further, the figures for the Ratio IC50 in [2] and in series [5] were 1 and 0.8, respectively. In addition, the values for the Ratio CC50/IC50 in series [4], in [8] and in series [9] were 3.2, 3.7 and 3.9, respectively. Moreover, in series [6], the CC50 at 72 h is 2.58 µM.

`C(=C(c1ccccc1)c1ccccc1)[C@@H]1CCCN2CCCC[C@H]12` returned a minimum inhibitory concentration (MIC) in series [12] of 3.9 µM (≈ 1.24 µg/mL).

Regarding `O/N=C1\c2ccccc2-c2c1c(N1CCN(c3ccccn3)CC1)nc1ccc(Cl)cc21`, the IC50 worked out at 6.81 µM in series [1] and 6.61 µM in series [3]. For the same compound, in series [2], the Ratio IC50 was determined as 1. Moreover, in series [6], the CC50 at 72 h is over 38 µM. Further, the Ratio CC50/IC50 in series [8] was over 5.6; in [9], over 5.8.

`O=C1c2ccccc2-c2c1c(NCCN1CCCCC1)nc1cc(Cl)ccc21`: the IC50 is 1.17 µM in series [1] and 2.34 µM in [7]. Also, the Ratio IC50 in series [5] amounted to 0.5.

On to `O/N=C1\c2ccccc2-c2c1c(NCCN1CCOCC1)nc1cc(Cl)ccc21`, for which the IC50 turned out to be 2.73 µM in series [1], 2.84 µM in series [3] and 5.39 µM in series [7]. Also, the results for the Ratio IC50 in [2] and in [5] were 1 and 0.5, respectively.

In turn, `Clc1ccc(C(=C[C@@H]2CCCN3CCCC[C@H]23)c2ccc(Cl)cc2)cc1` yielded an MIC in [12] of 1.6 µM (≈ 0.618 µg/mL).

With `O/N=C1\c2ccccc2-c2c1c(NCCN1CCCCC1)nc1ccc(Cl)cc21`, the IC50 in series [1] was 0.255 µM; in series [3], 0.85 µM; in series [7], 0.843 µM; in series [13] it was over 4 molar ratio. The Ratio IC50 in series [2] and in series [5] was 0.3 each time. Besides, the Ratio CC50/IC50 in series [4] came to 3.7; in [8], 12; in [9] it was 3.7. The half-maximal cytotoxic concentration (CC50) at 72 h in series [6] was found to be 3.12 µM.

For `O/N=C1\c2ccccc2-c2c1c(-n1ccnc1)nc1ccc(Cl)cc21`, the IC50 in series [1] and in series [3] was over 5 µM in each case.

As for `O=C1c2ccccc2-c2c1c(NCCN1CCCCC1)nc1ccc(Cl)cc21`, the IC50 in [1] is 0.626 µM; in series [7] it was 1.71 µM. Also, in series [5], the Ratio IC50 worked out at 0.4.

Turning to `COc1nc2ccc(Cl)cc2c2c1/C(=N/NC(=N)N)c1ccccc1-2`, the IC50 in series [1] was 0.432 µM; in series [3] it was 0.36 µM. Further, the Ratio IC50 in series [2] turned out to be 1.2. For the same compound, the CC50 at 72 h in [6] amounted to 1.72 µM. For the same compound, the Ratio CC50/IC50 is 4 in series [8] and 4.8 in series [9].

For the compound `O=C1c2ccccc2-c2c1c(NCCN1CCOCC1)nc1cc(Cl)ccc21`, the results for the IC50 in series [1], in [3] and in series [7] were 2.55 µM, 3.76 µM and 6.78 µM, respectively. The Ratio IC50 in [2] was 0.7; in series [5], 0.4.

Take `c1ccc2c(c1)-c1ccccc1C2C[C@@H]1CCCN2CCCC[C@H]12`: the minimal inhibitory concentration (MIC) in series [12] came to 20 µM (≈ 6.35 µg/mL).

On to `COc1nc2ccc(Cl)cc2c2c1/C(=N/N1CCN(C)CC1)c1ccccc1-2`, for which the IC50 came out at 3.16 µM in series [1] and 4.58 µM in series [3]. Besides, in series [2], the Ratio IC50 stood at 0.7. For the same compound, in series [6], the 50% cytotoxic concentration (CC50) at 72 h was determined as 5.28 µM. For the same compound, the Ratio CC50/IC50 in [8] was found to be 1.7; in [9], 1.2.

As for `CN1CCN(c2nc3ccc(Cl)cc3c3c2C(=O)c2ccccc2-3)CC1`, the IC50 in series [1] was 1.19 µM; in [3], 1.64 µM. Moreover, the Ratio IC50 in series [2] turned out to be 0.7. In [6], the CC50 at 72 h came out at 4.03 µM. The Ratio CC50/IC50 in [8] came out at 3.4; in series [9] it was 2.5.

Take `O/N=C1\c2ccccc2-c2c1c(NCCN1CCCCC1)nc1cc(Cl)ccc21`: the IC50 amounted to 0.244 µM in series [1] and 0.53 µM in series [7]. The Ratio CC50/IC50 in [4] is 4.4; in series [8] it was 9.6. In addition, the Ratio IC50 in series [5] came to 0.5. For the same compound, the CC50 at 72 h in series [6] came to 2.34 µM.

For `CN1CCN(CCNc2nc3cc(Cl)ccc3c3c2C(=O)c2ccccc2-3)CC1`, the IC50 in [1] was determined as 0.534 µM; in [3] it was 0.468 µM. The Ratio IC50 in series [2] worked out at 1.1. Further, the CC50 at 72 h in series [6] stood at 3.12 µM. Further, the results for the Ratio CC50/IC50 in series [8] and in series [9] were 5.9 and 6.7, respectively.

As to `Clc1cccc(/C(=C\[C@@H]2CCCN3CCCC[C@H]23)c2ccccc2)c1`, the MIC in series [12] came to 0.85 µM (≈ 0.299 µg/mL).

On to `CN1CCN(CCNc2nc3cc(Cl)ccc3c3c2/C(=N/O)c2ccccc2-3)CC1`, for which the values for the IC50 in [1] and in [3] were 1.05 µM and 0.676 µM, respectively. For the same compound, the Ratio IC50 in [2] turned out to be 1.6. In addition, the cytotoxic concentration (CC50) at 72 h in series [6] was 2.94 µM. Moreover, the Ratio CC50/IC50 in series [8] worked out at 2.8; in series [9], 4.4.

The record behind these values is ChEMBL document CHEMBL3351756, “Synthesis and evaluation of the antiplasmodial activity of novel indeno[2,1-c]quinoline derivatives” (Bioorg Med Chem, 2014).
